# Patent publication US9861625B2, “Methods and compositions for treating cancer through inhibition of PI3K” (Duke University, priority 2014, dated 2018)
# Tests used:
# [1] = system: Ly8 cells and normal human B cells (tonsil lymphocytes); assay: Toxicity in Ly8 cells compared to normal B cells (alamar blue); assay type: cell-based; conditions: alone and in combination; 36 hours
# Method: BEZ235 was tested in combination with the PAK1 inhibitor IPA-3 using Calcusyn software by applying the Chou-Talalay method. BJAB, HBL1, HBL2, HT, Ly8, and Riva cells were tested, as were normal tonsil lymphocytes. Ly8 and tonsillar lymphocytes were cultured in 96-well plates (approximately 500,000 cells/ml) for 36 hours in Iscove's modified Dulbecco's medium (IMDM) with 20% human AB serum. Viability was assessed with alamar blue dye and normalized to the lowest concentration of BEZ235 in each group.
# Finally, BEZ235 and IPA-3 were administered separately and concurrently to normal human B cells to ascertain a therapeutic window between normal and malignant cells.
# [2] = system: nine different cells lines; assay: IPA-3 as a single agent in nine cell lines; assay type: cell-based
# Method: The 3-(4,5-dimethylthiazol-2-yl)-2,5-diphenyltetrazolium bromide (MTT) cell viability assay was used to determine cell viability in response to drug treatment. Five replicates per concentration tested were carried out in serial dilutions with a total of ten concentrations with a 50% reduction in drug concentration per dilution for each plate. A total of 15 μl of MTT reagent was added to each drug-treated well and incubated for three hours in 37° C. Detergent was added to each drug-treated well and incubated overnight at room temperature without exposure to light. Absorbance was measured at 570 nm using a plate reader from Tecan Group. The IC50 concentration was determined using the publicly available ED50 plus v1.0 software program.
# Small-molecule inhibition of PAK1 with IPA-3 achieved consistent results. PAK1 inhibition with IPA-3 was tested in nine different cells lines, both individually and in combination with BEZ235.
structure (smiles),measurement,setting,value
Oc1ccc2ccccc2c1SSc1c(O)ccc2ccccc12 [IPA-3],toxicity in Ly8 cells as compared to normal B cells,[1],selective toxicity
same,"cell death at 10 μmol/L, upper end of the range",[2]; 10 μmol/L,no cell death
same,IC50,"[2]; nine cell lines, read-out: observed IC50 values, lower end of range",≥ 697 nM
